Reference: patent US7091202B2, “4-arylspirocycloalkyl-2-aminopyrimidine carboxamide KCNQ potassium channel modulators” (Bristol-Myers Squibb Company, priority 2004, dated 2006)
pEC50: −log10 of the molar value.

What follows are compounds tested against T1, hQ23 (HEK-293 cell line stably transfected with one of the members of the KCNQ family) (Homo sapiens, UniProt O43525+O43526) (assay: Thallium flux assay for KCNQ channel blockers (FLIPR, BTC dye)). Settings: Table 2; thallium flux, HEK-293.
T1 construct: expressed in transfected cells; host or cells: HEK-293, stably transfected
T1 sequence (O43526 whole entry): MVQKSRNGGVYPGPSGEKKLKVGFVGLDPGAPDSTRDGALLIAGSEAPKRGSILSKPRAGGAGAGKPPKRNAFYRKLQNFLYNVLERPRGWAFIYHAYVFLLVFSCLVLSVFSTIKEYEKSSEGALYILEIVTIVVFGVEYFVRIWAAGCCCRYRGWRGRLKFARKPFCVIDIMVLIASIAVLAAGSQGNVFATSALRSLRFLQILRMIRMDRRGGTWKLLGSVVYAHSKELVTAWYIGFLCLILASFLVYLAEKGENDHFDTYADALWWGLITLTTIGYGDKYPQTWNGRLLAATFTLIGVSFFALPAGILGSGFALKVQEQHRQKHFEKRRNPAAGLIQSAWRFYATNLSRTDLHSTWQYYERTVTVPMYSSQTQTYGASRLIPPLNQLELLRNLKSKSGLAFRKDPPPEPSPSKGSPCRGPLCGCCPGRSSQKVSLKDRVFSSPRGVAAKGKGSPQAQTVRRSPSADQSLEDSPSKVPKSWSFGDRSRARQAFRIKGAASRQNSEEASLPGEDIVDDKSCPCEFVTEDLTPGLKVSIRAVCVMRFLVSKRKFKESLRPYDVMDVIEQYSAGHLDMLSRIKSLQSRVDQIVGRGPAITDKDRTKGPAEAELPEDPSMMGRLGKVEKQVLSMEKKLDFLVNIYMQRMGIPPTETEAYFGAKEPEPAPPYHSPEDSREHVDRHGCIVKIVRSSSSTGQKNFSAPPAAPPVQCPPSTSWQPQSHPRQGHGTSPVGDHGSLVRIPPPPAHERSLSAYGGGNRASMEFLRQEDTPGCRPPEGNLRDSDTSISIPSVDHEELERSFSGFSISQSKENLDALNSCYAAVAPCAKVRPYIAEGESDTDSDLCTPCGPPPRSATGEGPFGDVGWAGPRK
T1 sequence (O43525 whole entry): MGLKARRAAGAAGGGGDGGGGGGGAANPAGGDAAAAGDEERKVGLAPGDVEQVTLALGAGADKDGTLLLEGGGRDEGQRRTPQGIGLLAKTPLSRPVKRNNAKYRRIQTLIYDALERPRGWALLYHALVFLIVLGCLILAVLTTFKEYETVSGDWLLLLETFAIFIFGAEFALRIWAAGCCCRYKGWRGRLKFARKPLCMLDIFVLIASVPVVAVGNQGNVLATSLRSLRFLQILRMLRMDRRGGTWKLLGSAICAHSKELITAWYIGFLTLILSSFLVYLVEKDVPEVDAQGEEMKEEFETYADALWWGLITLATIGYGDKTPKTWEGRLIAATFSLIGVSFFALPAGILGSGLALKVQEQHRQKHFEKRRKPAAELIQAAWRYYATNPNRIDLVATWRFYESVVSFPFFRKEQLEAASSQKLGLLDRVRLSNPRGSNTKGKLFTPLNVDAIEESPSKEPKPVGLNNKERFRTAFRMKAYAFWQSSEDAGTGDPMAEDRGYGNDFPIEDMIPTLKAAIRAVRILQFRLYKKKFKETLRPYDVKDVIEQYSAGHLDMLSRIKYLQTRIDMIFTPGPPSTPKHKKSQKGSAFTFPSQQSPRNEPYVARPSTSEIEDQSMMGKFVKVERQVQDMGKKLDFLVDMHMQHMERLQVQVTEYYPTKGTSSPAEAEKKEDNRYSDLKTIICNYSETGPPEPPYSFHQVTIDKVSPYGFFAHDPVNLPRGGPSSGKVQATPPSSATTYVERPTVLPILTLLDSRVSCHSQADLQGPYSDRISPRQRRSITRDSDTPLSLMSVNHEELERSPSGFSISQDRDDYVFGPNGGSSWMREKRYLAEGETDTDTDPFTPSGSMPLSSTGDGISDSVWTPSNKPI
Format: cell-based
How it was run: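 FLIPR thallium flux readout (BTC dye, 2 μM AM ester) in stably transfected KCNQ HEK-293 cells, chloride-free HEPES buffer pH 7.3, Tl2SO4 stimulus. IC50s were fitted with a single-site logistic equation across 10 points at 1:3 dilutions, defined as 50% of positive-control block; minimal active concentration meant signal ≥4 SD over DMSO controls.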

Row | pEC50 | Compound
1 | 6.38 | CC1CCC(Nc2ncc(C(=O)NCc3ccc(F)cc3F)c(C3(c4ccccc4)CC3)n2)CC1 (stereo not shown) [Example 42, 5-pyrimidinecarboxamide, N-[(2,4-difluorophenyl)methyl]-2-[(4-methylcyclohexyl)amino]-4-(1-phenylcyclopropyl)-]

Same assay, conditions: Table 3; thallium flux, HEK-293

Row | pEC50 | Compound
2 | 6.25 | CCN(CC)C(=O)c1cnc(NCCN(C)C)nc1C1(c2ccc(Cl)cc2)CCC1 [Example 53, 5-pyrimidinecarboxamide, 4-[1-(4-chlorophenyl)cyclobutyl]-2-[[2-(dimethylamino)ethyl]amino]-N,N-diethyl-]
3 | 6.13 | CN1CCN(c2ncc(C(=O)NCc3ccc4c(c3)OCO4)c(C3(c4ccc(Cl)cc4)CCC3)n2)CC1 [Example 57, 5-pyrimidinecarboxamide, N-(1,3-benzodioxol-5-ylmethyl)-4-[1-(4-chlorophenyl)cyclobutyl]-2-(4-methyl-1-piperazinyl)-]
4 | 6.39 | CCC(C)Nc1ncc(C(=O)NCc2ccc3c(c2)OCO3)c(C2(c3ccc(Cl)cc3)CCC2)n1 (stereo not shown) [Example 59, 5-pyrimidinecarboxamide, N-(1,3-benzodioxol-5-ylmethyl)-4-[1-(4-chlorophenyl)cyclobutyl]-2-[(1-methylpropyl)amino]-]

Same assay, conditions: hQ23 cells, thallium flux

Row | pEC50 | Compound
5 | 6.50 | CC1CCCN(c2ncc(C(=O)NCc3cc(F)cc(C(F)(F)F)c3)c(C3(c4ccccc4)CCCC3)n2)C1 (stereo not shown) [Example 126, 5-pyrimidinecarboxamide, N-[[3-fluoro-5-(trifluoromethyl)phenyl]methyl]-2-(3-methyl-1-piperidinyl)-4-(1-phenylcyclopentyl)-]
6 | 8.00 | CC1CCN(c2ncc(C(=O)NCc3ccc(Cl)c(Cl)c3)c(C3(c4ccc(Cl)cc4)CCCC3)n2)CC1 [Example 175, 5-pyrimidinecarboxamide, 4-[1-(4-chlorophenyl)cyclopentyl]-N-[(3,4-dichlorophenyl)methyl]-2-(4-methyl-1-piperidinyl)-]
7 | 6.77 | CN(CCc1ccccc1)C(=O)c1cnc(N2CCCC2)nc1C1(c2ccc(F)cc2)CCCC1 [Example 220, 5-pyrimidinecarboxamide, 4-[1-(4-fluorophenyl)cyclopentyl]-N-methyl-N-(2-phenylethyl)-2-(1-pyrrolidinyl)-]
8 | 6.66 | CC1CCC(Nc2ncc(C(=O)NCc3ccc4c(c3)OCO4)c(C3(c4ccccc4)CCCC3)n2)CC1 (stereo not shown) [Example 90, 5-pyrimidinecarboxamide, N-(1,3-benzodioxol-5-ylmethyl)-2-[(4-methylcyclohexyl)amino]-4-(1-phenylcyclopentyl)-]
9 | 6.59 | CN1CCN(c2ncc(C(=O)NCc3ccc4c(c3)OCO4)c(C3(c4ccccc4)CCCC3)n2)CC1 [Example 91, 5-pyrimidinecarboxamide, N-(1,3-benzodioxol-5-ylmethyl)-2-(4-methyl-1-piperazinyl)-4-(1-phenylcyclopentyl)-]
10 | 8.00 | O=C(NCc1ccc(Cl)cc1Cl)c1cnc(NC2CCCC2)nc1C1(c2ccc(Cl)cc2)CCCC1 [Example 185, 5-pyrimidinecarboxamide, 4-[1-(4-chlorophenyl)cyclopentyl]-2-(cyclopentylamino)-N-[(2,4-dichlorophenyl)methyl]-]
11 | 6.03 | CCN(Cc1ccccc1)C(=O)c1cnc(NC2CCCC2)nc1C1(c2ccccc2)CCCC1 [Example 88, 5-pyrimidinecarboxamide, 2-(cyclopentylamino)-N-ethyl-4-(1-phenylcyclopentyl)-N-(phenylmethyl)-]
12 | 7.62 | O=C(NCc1ccc(F)cc1F)c1cnc(NC2CCCC2)nc1C1(c2ccccc2)CCCC1 [Example 121, 5-pyrimidinecarboxamide, 2-(cyclopentylamino)-N-[(2,4-difluorophenyl)methyl]-4-(1-phenylcyclopentyl)-]

Same assay, conditions: hQ23 cells, thallium flux assay

Row | pEC50 | Compound
13 | 8.00 | CC1CCCN(c2ncc(C(=O)NCc3cccc4ccccc34)c(C3(c4ccc(F)cc4)CCCC3)n2)C1 (stereo not shown) [Example 250, 5-pyrimidinecarboxamide, 4-[1-(4-fluorophenyl)cyclopentyl]-2-(3-methyl-1-piperidinyl)-N-(1-naphthalenylmethyl)-]
